From ChEMBL document CHEMBL1131933, “Cleavage of the cyclohexyl-subunit of rapamycin results in loss of immunosuppressive activity” (Bioorg Med Chem Lett, 1999)

What was measured:
[1] = Compound was tested in vitro for inhibitory activity in the mixed lymphocyte reaction (MLR) assay; format: functional
[2] = Compound was tested in vitro for its ability to inhibit the proliferation of the IL-6-dependent hybridoma clone B13-29-15; format: functional
[3] = molecular target: Peptidyl-prolyl cis-trans isomerase FKBP1A (Homo sapiens, UniProt P62942); test: Compound was tested in vitro for its ability to compete with immobilized FK506 for binding to biotinylated FK506 binding protein 12 in a competitive binding assay
Sequence of Peptidyl-prolyl cis-trans isomerase FKBP1A (P62942 whole entry): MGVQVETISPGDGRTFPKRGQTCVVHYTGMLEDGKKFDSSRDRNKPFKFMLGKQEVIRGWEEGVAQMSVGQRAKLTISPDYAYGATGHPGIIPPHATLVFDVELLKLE

IC50 [1] [nM] | IC50 [3] [nM] | SMILES | IC50 [2] [nM]
> 380 | 3.4 | COC(=O)CC[C@H](CCO)C[C@@H](C)[C@@H]1CC(=O)[C@H](C)/C=C(\C)[C@@H](O)[C@@H](OC)C(=O)[C@H](C)C[C@H](C)/C=C/C=C/C=C(\C)[C@@H](OC)C[C@@H]2CC[C@@H](C)[C@@](O)(O2)C(=O)C(=O)N2CCCC[C@H]2C(=O)O1 | 200
1 |  | CO[C@H]1C[C@@H]2CC[C@@H](C)[C@@](O)(O2)C(=O)C(=O)N2CCCC[C@H]2C(=O)O[C@H]([C@H](C)C[C@@H]2CC[C@@H](O)[C@H](OC)C2)CC(=O)[C@H](C)/C=C(\C)[C@@H](O)[C@@H](OC)C(=O)[C@H](C)C[C@H](C)/C=C/C=C/C=C/1C [SIROLIMUS] | 1
